# Laboratory results reported in patent US10550111B2, “Pyrimidine urea compound containing isoxazolines and use thereof” (SHENYANG SINOCHEM AGROCHEMICALS R&D CO., LTD, priority 2014, dated 2020).
# Legend:
# Format in all cases: in vivo
# [1] = system: broad-leaf weeds and grass weeds; test: General screening of herbicidal activity in greenhouse; settings: 1000 g a.i./hm^2;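 further: 0 means no visible effect and 100 means all weeds dead or not emerged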
# Method: (§1) Determination of herbicidal activity of compounds of the present invention against weeds was carried out by the following procedures:
# (§2) Seeds of monocotyledonous and dicotyledonous weeds were sown in nutrition soil in paper pot (7 cm diameter), covered with soil in 1 cm and grown in the greenhouse under good growth conditions (temperature, atmospheric humidity, water supply). The compounds of the present invention as emulsifiable concentrate, were applied in pre-emergence and post-emergence treatment by track sprayer (Engineer Research Ltd., pressure 1.95 kg/cm^2, volume 500 L/hm^2, track speed 1.48 km/h). Pre-emergence treatment was conducted after seeding 24 hours and post-emergence treatment was done when the respective weeds reached predetermined leaf stage (grass weed 2- to 3-leaf stage, broad-leaf weed 2- to 4-leaf stage), the state of growth of the respective weeds were visually observed to determine the growth inhibition rate (%) in accordance with the following evaluation standard.
# (§3) Growth inhibition rate (%): 0=no discernible action: 100=all weeds dead or not emerged.
# [2] = system: Abutilon theophrasti Medic.; test: Bioassay of herbicidal activity in greenhouse (further screening)
# Method: as §1, §2, §3
# [3] = system: Echinochloa crus-galli (L.) Beauv.; test: as above
# Method: as §1, §2, §3
# [4] = system: Setaria glauca (L.) Beauv.; test: as above
# Method: as §1, §2, §3
# [5] = system: Zinnia elegans Jacq.; test: as above
# Method: as §1, §2, §3
# [6] = pre-emergence, dose 600 g a.i./hm^2
compound,measurement,setting,value
CN(C)S(=O)(=O)OCC1(C)CC(c2cc(-n3c(=O)cc(C(F)(F)F)n(C)c3=O)c(F)cc2Cl)=NO1 (stereo not drawn) [Compound 96],pre-emergence and post-emergence herbicidal activity against broad-leaf weeds and grass weeds,[1],good
COC(=O)C1(C)CC(c2cc(-n3c(=O)cc(C(F)(F)F)n(C)c3=O)c(F)cc2Cl)=NO1 (stereo not drawn) [Compound 5],"Growth inhibition rate, Post-emergence treatment, Abutilon theophrasti Medic.",[2]; dose 7.5 g a.i./hm^2,100%
same,"Growth inhibition rate, Post-emergence treatment, Abutilon theophrasti Medic.",[2]; dose 15 g a.i./hm^2,100%
same,"Growth inhibition rate, Post-emergence treatment, Abutilon theophrasti Medic.",[2]; dose 30.0 g a.i./hm^2,100%
same,"Growth inhibition rate, Post-emergence treatment, Abutilon theophrasti Medic.",[2]; dose 60.0 g a.i./hm^2,100%
same,"Growth inhibition rate, Post-emergence treatment, Abutilon theophrasti Medic.",[2]; dose 120.0 g a.i./hm^2,100%
same,"Growth inhibition rate, Post-emergence treatment, Echinochloa crus-galli (L.) Beauv.",[3]; dose 7.5 g a.i./hm^2,45%
same,"Growth inhibition rate, Post-emergence treatment, Echinochloa crus-galli (L.) Beauv.",[3]; dose 15 g a.i./hm^2,95%
same,"Growth inhibition rate, Post-emergence treatment, Echinochloa crus-galli (L.) Beauv.",[3]; dose 30.0 g a.i./hm^2,100%
same,"Growth inhibition rate, Post-emergence treatment, Echinochloa crus-galli (L.) Beauv.",[3]; dose 60.0 g a.i./hm^2,100%
same,"Growth inhibition rate, Post-emergence treatment, Echinochloa crus-galli (L.) Beauv.",[3]; dose 120.0 g a.i./hm^2,100%
same,"Growth inhibition rate, Post-emergence treatment, Setaria glauca (L.) Beauv.",[4]; dose 7.5 g a.i./hm^2,60%
same,"Growth inhibition rate, Post-emergence treatment, Setaria glauca (L.) Beauv.",[4]; dose 15 g a.i./hm^2,65%
same,"Growth inhibition rate, Post-emergence treatment, Setaria glauca (L.) Beauv.",[4]; dose 30.0 g a.i./hm^2,100%
same,"Growth inhibition rate, Post-emergence treatment, Setaria glauca (L.) Beauv.",[4]; dose 60.0 g a.i./hm^2,100%
same,"Growth inhibition rate, Post-emergence treatment, Setaria glauca (L.) Beauv.",[4]; dose 120.0 g a.i./hm^2,100%
same,"Growth inhibition rate, Post-emergence treatment, Zinnia elegans Jacq.",[5]; dose 7.5 g a.i./hm^2,40%
same,"Growth inhibition rate, Post-emergence treatment, Zinnia elegans Jacq.",[5]; dose 15 g a.i./hm^2,45%
same,"Growth inhibition rate, Post-emergence treatment, Zinnia elegans Jacq.",[5]; dose 30.0 g a.i./hm^2,98%
same,"Growth inhibition rate, Post-emergence treatment, Zinnia elegans Jacq.",[5]; dose 60.0 g a.i./hm^2,100%
same,"Growth inhibition rate, Post-emergence treatment, Zinnia elegans Jacq.",[5]; dose 120.0 g a.i./hm^2,100%
same,pre-emergence and post-emergence herbicidal activity against broad-leaf weeds and grass weeds,[1],good
Cn1c(C(F)(F)F)cc(=O)n(-c2ccc(Cl)c(C3=NOC(C)(CO)C3)c2)c1=O (stereo not drawn) [Compound 320],pre-emergence and post-emergence herbicidal activity against broad-leaf weeds and grass weeds,[1],good
CC(=O)OCCOC(=O)C1(C)CC(c2cc(-n3c(=O)cc(C(F)(F)F)n(C)c3=O)c(F)cc2Cl)=NO1 (stereo not drawn) [Compound 17],"Growth inhibition rate, Post-emergence treatment, Abutilon theophrasti Medic.",[2]; dose 7.5 g a.i./hm^2,95%
same,"Growth inhibition rate, Post-emergence treatment, Abutilon theophrasti Medic.",[2]; dose 15 g a.i./hm^2,98%
same,"Growth inhibition rate, Post-emergence treatment, Abutilon theophrasti Medic.",[2]; dose 30.0 g a.i./hm^2,100%
same,"Growth inhibition rate, Post-emergence treatment, Abutilon theophrasti Medic.",[2]; dose 60.0 g a.i./hm^2,100%
same,"Growth inhibition rate, Post-emergence treatment, Abutilon theophrasti Medic.",[2]; dose 120.0 g a.i./hm^2,100%
same,"Growth inhibition rate, Post-emergence treatment, Abutilon theophrasti Medic.",[2]; dose 600 g a.i./hm^2,100%
same,"Growth inhibition rate, Pre-emergence treatment, Abutilon theophrasti Medic.",[2]; [6],90%
same,"Growth inhibition rate, Post-emergence treatment, Echinochloa crus-galli (L.) Beauv.",[3]; dose 7.5 g a.i./hm^2,30%
same,"Growth inhibition rate, Post-emergence treatment, Echinochloa crus-galli (L.) Beauv.",[3]; dose 15 g a.i./hm^2,60%
same,"Growth inhibition rate, Post-emergence treatment, Echinochloa crus-galli (L.) Beauv.",[3]; dose 30.0 g a.i./hm^2,100%
same,"Growth inhibition rate, Post-emergence treatment, Echinochloa crus-galli (L.) Beauv.",[3]; dose 60.0 g a.i./hm^2,100%
same,"Growth inhibition rate, Post-emergence treatment, Echinochloa crus-galli (L.) Beauv.",[3]; dose 120.0 g a.i./hm^2,100%
same,"Growth inhibition rate, Post-emergence treatment, Echinochloa crus-galli (L.) Beauv.",[3]; dose 600 g a.i./hm^2,100%
same,"Growth inhibition rate, Pre-emergence treatment, Echinochloa crus-galli (L.) Beauv.",[3]; [6],95%
same,"Growth inhibition rate, Post-emergence treatment, Setaria glauca (L.) Beauv.",[4]; dose 7.5 g a.i./hm^2,55%
same,"Growth inhibition rate, Post-emergence treatment, Setaria glauca (L.) Beauv.",[4]; dose 15 g a.i./hm^2,60%
same,"Growth inhibition rate, Post-emergence treatment, Setaria glauca (L.) Beauv.",[4]; dose 30.0 g a.i./hm^2,100%
same,"Growth inhibition rate, Post-emergence treatment, Setaria glauca (L.) Beauv.",[4]; dose 60.0 g a.i./hm^2,100%
same,"Growth inhibition rate, Post-emergence treatment, Setaria glauca (L.) Beauv.",[4]; dose 120.0 g a.i./hm^2,100%
same,"Growth inhibition rate, Post-emergence treatment, Setaria glauca (L.) Beauv.",[4]; dose 600 g a.i./hm^2,100%
same,"Growth inhibition rate, Pre-emergence treatment, Setaria glauca (L.) Beauv.",[4]; [6],85%
same,"Growth inhibition rate, Post-emergence treatment, Zinnia elegans Jacq.",[5]; dose 7.5 g a.i./hm^2,45%
same,"Growth inhibition rate, Post-emergence treatment, Zinnia elegans Jacq.",[5]; dose 15 g a.i./hm^2,55%
same,"Growth inhibition rate, Post-emergence treatment, Zinnia elegans Jacq.",[5]; dose 30.0 g a.i./hm^2,65%
same,"Growth inhibition rate, Post-emergence treatment, Zinnia elegans Jacq.",[5]; dose 60.0 g a.i./hm^2,90%
same,"Growth inhibition rate, Post-emergence treatment, Zinnia elegans Jacq.",[5]; dose 120.0 g a.i./hm^2,100%
same,"Growth inhibition rate, Post-emergence treatment, Zinnia elegans Jacq.",[5]; dose 600 g a.i./hm^2,100%
same,"Growth inhibition rate, Pre-emergence treatment, Zinnia elegans Jacq.",[5]; [6],90%
same,pre-emergence and post-emergence herbicidal activity against broad-leaf weeds and grass weeds,[1],good
CC(C)C(=O)OCC1(C)CC(c2cc(-n3c(=O)cc(C(F)(F)F)n(C)c3=O)ccc2Cl)=NO1 (stereo not drawn) [Compound 324],pre-emergence and post-emergence herbicidal activity against broad-leaf weeds and grass weeds,[1],good
Cn1c(C(F)(F)F)cc(=O)n(-c2ccc(Cl)c(C3=NOC(C)(COC(=O)CCc4ccccc4)C3)c2)c1=O (stereo not drawn) [Compound 333],pre-emergence and post-emergence herbicidal activity against broad-leaf weeds and grass weeds,[1],good
COc1c(Cl)ccc(Cl)c1C(=O)OCC1(C)CC(c2cc(-n3c(=O)cc(C(F)(F)F)n(C)c3=O)c(F)cc2Cl)=NO1 (stereo not drawn) [Compound 66],pre-emergence and post-emergence herbicidal activity against broad-leaf weeds and grass weeds,[1],good
Cn1c(C(F)(F)F)cc(=O)n(-c2ccc(Cl)c(C3=NOC(C)(COC(=O)CCl)C3)c2)c1=O (stereo not drawn) [Compound 328],pre-emergence and post-emergence herbicidal activity against broad-leaf weeds and grass weeds,[1],good
Cn1c(C(F)(F)F)cc(=O)n(-c2ccc(Cl)c(C3=NOC(C)(COS(C)(=O)=O)C3)c2)c1=O (stereo not drawn) [Compound 366],pre-emergence and post-emergence herbicidal activity against broad-leaf weeds and grass weeds,[1],good
COC(=O)C1CCN(C(=O)C2(C)CC(c3cc(-n4c(=O)cc(C(F)(F)F)n(C)c4=O)c(F)cc3Cl)=NO2)CC1 (stereo not drawn) [Compound 35],pre-emergence and post-emergence herbicidal activity against broad-leaf weeds and grass weeds,[1],good
Cn1c(C(F)(F)F)cc(=O)n(-c2cc(C3=NOC(C)(CBr)C3)c(Cl)cc2F)c1=O (stereo not drawn) [Compound 99],pre-emergence and post-emergence herbicidal activity against broad-leaf weeds and grass weeds,[1],good
CSCCC(=O)OCC1(C)CC(c2cc(-n3c(=O)cc(C(F)(F)F)n(C)c3=O)ccc2Cl)=NO1 (stereo not drawn) [Compound 332],pre-emergence and post-emergence herbicidal activity against broad-leaf weeds and grass weeds,[1],good
Cn1c(C(F)(F)F)cc(=O)n(-c2cc(C3=NOC(C)(CO)C3)c(Cl)cc2F)c1=O (stereo not drawn) [Compound 42],pre-emergence and post-emergence herbicidal activity against broad-leaf weeds and grass weeds,[1],good
Cn1c(C(F)(F)F)cc(=O)n(-c2ccc(Cl)c(C3=NOC(C)(COC(=O)C4CC4)C3)c2)c1=O (stereo not drawn) [Compound 323],pre-emergence and post-emergence herbicidal activity against broad-leaf weeds and grass weeds,[1],good
CC(C)NC(=O)C1(C)CC(c2cc(-n3c(=O)cc(C(F)(F)F)n(C)c3=O)c(F)cc2Cl)=NO1 (stereo not drawn) [Compound 26],pre-emergence and post-emergence herbicidal activity against broad-leaf weeds and grass weeds,[1],good
CC(=O)OCC1(C)CC(c2cc(-n3c(=O)cc(C(F)(F)F)n(C)c3=O)ccc2Cl)=NO1 (stereo not drawn) [Compound 321],pre-emergence and post-emergence herbicidal activity against broad-leaf weeds and grass weeds,[1],good
Cn1c(C(F)(F)F)cc(=O)n(-c2ccc(Cl)c(C3=NOC(C)(C(=O)O)C3)c2)c1=O (stereo not drawn) [Compound 282],pre-emergence and post-emergence herbicidal activity against broad-leaf weeds and grass weeds,[1],good
CNC(=O)C1(C)CC(c2cc(-n3c(=O)cc(C(F)(F)F)n(C)c3=O)c(F)cc2Cl)=NO1 (stereo not drawn) [Compound 23],pre-emergence and post-emergence herbicidal activity against broad-leaf weeds and grass weeds,[1],good
Cn1c(C(F)(F)F)cc(=O)n(-c2ccc(Cl)c(C3=NOC(C)(COC(=O)CCCl)C3)c2)c1=O (stereo not drawn) [Compound 329],pre-emergence and post-emergence herbicidal activity against broad-leaf weeds and grass weeds,[1],good
Cn1c(C(F)(F)F)cc(=O)n(-c2ccc(Cl)c(C3=NOC(C)(COC(=O)c4cc(Oc5ccc(C(F)(F)F)cc5Cl)ccc4[N+](=O)[O-])C3)c2)c1=O (stereo not drawn) [Compound 345],pre-emergence and post-emergence herbicidal activity against broad-leaf weeds and grass weeds,[1],good
Cn1c(C(F)(F)F)cc(=O)n(-c2cc(C3=NOC(C)(COC(=O)c4cc(Oc5ccc(C(F)(F)F)cc5Cl)ccc4[N+](=O)[O-])C3)c(Cl)cc2F)c1=O (stereo not drawn) [Compound 67],pre-emergence and post-emergence herbicidal activity against broad-leaf weeds and grass weeds,[1],good
